Consider 13 compounds from US9750744.

Experiment in data set [1]: not given
The source holds these as a separate data set.

Several values for one entry are separate records, joined by “and”; a condition that tells them apart may be missing. Equal values may be shown once. Read-outs that look alike come from different tables or passages of the source.

Take `O=C1NC[C@H](O)COc2ccc(F)cc2C2CC(F)(F)CN2c2ccn3ncc1c3n2` (stereo partly shown): for the setting “from O=C(NC[C@H](O)CCl)c1cnn2ccc(N3CC(F)(F)CC3c3cc(F)ccc3O)nc12, ether bond, 14-membered ring, Cs2CO3, DMF, 20.0 mM, 85.0 °C, 0.5 h”, the ring closure, isolated yield is 20% and 24%. Where the note is “from NCCOc1ccc(F)cc1[C@H]1CCCN1c1ccn2ncc(C=O)c2n1, amine bond, 13-membered ring, Me4NBH(OAc)3, DCM, 8.4 mM, 25.0 °C, 16.0 h”, `Fc1ccc2c(c1)[C@H]1CCCN1c1ccn3ncc(c3n1)CNCCO2` gave a ring closure, isolated yield of 21.6%. With `O=C1NCCCc2ncc(F)cc2[C@H]2CCCN2c2ccn3ncc1c3n2`, for the setting “from NCCCc1ncc(F)cc1[C@H]1CCCN1c1ccn2ncc(C(=O)O)c2n1, amide bond, 13-membered ring, HATU/DIEA, DMF, 8.4 mM, 3.0 h”, the ring closure, isolated yield was 39%. With `O=C1NC[C@H](O)Cn2cc(F)cc(c2=O)[C@H]2CCCN2c2ccn3ncc1c3n2`, the ring closure, yield of all isomers in data set [1] (from O=C(NC[C@H](O)CCl)c1cnn2ccc(N3CCC[C@@H]3c3cc(F)c[nH]c3=O)nc12, amine bond, Cs2CO3, DMF, […], 85.0 °C, 2.0 h) was determined as 12%. `O=C1NCCCOc2ccc(F)cc2[C@H]2CCCN2c2ccn3ncc1c3n2` registered a ring closure, isolated yield (from CCOC(=O)c1cnn2ccc(N3CCC[C@@H]3c3cc(F)ccc3OCCCN)nc12, amide bond, 14-membered ring, DIEA, EtOH, 230.0 mM, 200.0 °C, 16.0 h) of 50%. Turning to `NCCCOc1ccc(F)cc1[C@H]1CCCN1c1ccn2ncc(CO)c2n1`, the ring closure, isolated yield (the molecule shown is the open-chain precursor, amine bond, 14-membered ring, PS-PPh3/CCl4, DCM, 26.0 mM, 25.0 °C) came to 57.5%. For the compound `O=C1NCCCn2cc(F)cc(c2=O)[C@H]2CCCN2c2ccn3ncc1c3n2`, the ring closure, yield of all isomers in data set [1] (from NCCCn1cc(F)cc([C@H]2CCCN2c2ccn3ncc(C(=O)O)c3n2)c1=O, amide bond, EDCI/HOBt, DCM, 26.4 mM, 25.0 °C, 6.0 h) is 39%.

The compound `O=C1OCCOc2ncc(F)cc2[C@H]2CCCN2c2ccn3ncc1c3n2` showed a ring closure, yield of all isomers in data set [1] (from O=C(OCCCl)c1cnn2ccc(N3CCC[C@@H]3c3cc(F)c[nH]c3=O)nc12, ether bond, Cs2CO3, DMF, 22.2 mM, 90.0 °C, 16.0 h) of 22%. As to `COC(=O)c1cnn2ccc(N3CCC[C@@H]3c3cc(F)cnc3CCC(C)(C)NC(=O)OC(C)(C)C)nc12`, the ring closure, isolated yield (the molecule shown is the open-chain precursor, amide bond, 13-membered ring, EDCI/HOBt/TEA, DMF, 39.4 mM, 45.0 °C, 3 steps) was 48.3%. `O=C1NC[C@H](O)COc2ccc(F)cc2[C@H]2C[C@@H](O)CN2c2ccn3ncc1c3n2` returned a ring closure, isolated yield (from O=C(NC[C@H](O)CCl)c1cnn2ccc(N3CC(O)C[C@@H]3c3cc(F)ccc3O)nc12, ether bond, 14-membered ring, Cs2CO3, DMF, 21.6 mM, 85.0 °C, 0.5 h) of 16.2%. Turning to `O=C1NCCCCn2cc(F)cc(c2=O)[C@H]2CCCN2c2ccn3ncc1c3n2`, where the note is “other bond, 15-membered ring”, the ring closure, isolated yield stood at 6%.

Consider `O=C1Nc2ncccc2COc2ncc(F)cc2[C@H]2CCCN2c2ccn3ncc1c3n2`, for which, for the setting “from O=C(Nc1ncccc1CCl)c1cnn2ccc(N3CCC[C@@H]3c3cc(F)cnc3O)nc12, ether bond, 14-membered ring, Cs2CO3, DMF, 84.8 mM, 60.0 °C, 4.0 h, with chain assembly”, the ring closure, isolated yield was found to be 2.2%.

In the case of `O=C1NCCCOc2ncc(F)cc2[C@H]2CCCN2c2ccn3ncc1c3n2`, the ring closure, isolated yield (from O=C(NCCCCl)c1cnn2ccc(N3CCC[C@@H]3c3cc(F)cnc3O)nc12, ether bond, 14-membered ring, Cs2CO3, DMF, […], 85.0 °C, 16.0 h) turned out to be 44%.
